The record followed here is PubChem BioAssay (NCI).

Some test systems named below: HOP-62 NSCLC; HT29 colon; KM12 colon; OVCAR-4 ovarian; SF-295 CNS; SN12C renal; UACC-257 melanoma; UACC-62 melanoma.
Holding throughout (test): inhibition of tumour cell growth, NCI panel, 48 h

SMILES strings stand for the structures. Values joined by “and” are separate entries in the source; they are usually repeats but may differ in a detail not shown here. Equal entries are not always repeated.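 Protocol summary: plate cells (96-well), add compound at 5 concentrations, incubate 48 h, interpolate endpoints linearly. GI50 marks 50% less growth. TGI is the concentration that stops growth completely.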

Take `O=C1OCC2=C1C(c1cccc(Cl)c1)c1cc3c(cc1N2CCO)CCC3` (stereo unspecified): the GI50 in the assay on HOP-62 NSCLC is 0.0478 µM; with HT29 colon, 0.0313 µM; in the assay with KM12 colon it was 0.0402 µM; in the assay on OVCAR-4 ovarian, 0.0609 µM; in the assay with SF-295 CNS it was 0.0301 µM; in the assay with SN12C renal, 0.0759 µM. Moreover, the GI50 with UACC-257 melanoma was 0.0354 µM; in the assay on UACC-62 melanoma, 0.0427 µM. Also, the TGI worked out at 14.4 µM in the assay on HOP-62 NSCLC; 0.095 µM with HT29 colon; 4.05 µM with KM12 colon; 19.5 µM in the assay on OVCAR-4 ovarian; 11.9 µM in the assay on SF-295 CNS; 11.9 µM in the assay with SN12C renal. The values for the TGI with UACC-257 melanoma and in the assay on UACC-62 melanoma were 15.6 µM and 15.3 µM, respectively.

In the case of `CCCCOC(=O)c1c(C)[nH]c(/C=C2\N=C(c3ccc[nH]3)C=C2OC)c1C`, the GI50 with HOP-62 NSCLC is 0.416 µM; in the assay with HT29 colon, 0.041 µM; in the assay on KM12 colon it was 0.11 µM; in the assay on OVCAR-4 ovarian, 0.177 µM; in the assay on SF-295 CNS it was 0.253 µM; in the assay on SN12C renal, 0.226 µM. Also, the GI50 in the assay with UACC-257 melanoma is 0.488 µM; with UACC-62 melanoma, 0.127 µM. For the same molecule, the TGI was 8.04 µM in the assay with HOP-62 NSCLC; 1.72 µM in the assay with HT29 colon; 1.86 µM with KM12 colon; 5.04 µM in the assay with OVCAR-4 ovarian; 1.32 µM in the assay on SF-295 CNS; 2.54 µM in the assay on SN12C renal. The TGI came out at 3.35 µM in the assay with UACC-257 melanoma and 0.339 µM in the assay on UACC-62 melanoma.

For `COC(=O)c1cccc(NC(=O)c2ccc(NC3=C(Cl)C(=O)N(Cc4ccccc4)C3=O)cc2)c1`, the GI50 in the assay with HOP-62 NSCLC was 15.1 µM; with HT29 colon, 21.1 µM; in the assay with KM12 colon, 19.7 µM; with OVCAR-4 ovarian, 16.1 µM; with SF-295 CNS, 17.6 µM; in the assay on SN12C renal, 4.69 µM. The GI50 in the assay on UACC-257 melanoma was 15.4 µM; in the assay with UACC-62 melanoma, 11.7 µM. Further, the TGI was 35.4 µM with HOP-62 NSCLC; above 100 µM in the assay with HT29 colon; 41.7 µM in the assay with KM12 colon; 56.1 µM in the assay with OVCAR-4 ovarian; 57.8 µM in the assay with SF-295 CNS; 23.6 µM in the assay on SN12C renal. Further, the results for the TGI in the assay on UACC-257 melanoma and in the assay on UACC-62 melanoma were 50.2 µM and 25.4 µM, respectively.

For the molecule `Cn1c(=O)c(Oc2ccc(F)cc2F)cc2cnc(NCC(C)(C)O)nc21`, the GI50 with HOP-62 NSCLC, in the assay with HT29 colon, in the assay with KM12 colon, in the assay with OVCAR-4 ovarian, in the assay on SF-295 CNS and with SN12C renal was above 25 µM each time. Also, the GI50 with UACC-257 melanoma and in the assay with UACC-62 melanoma was above 25 µM throughout. Also, the TGI in the assay on HOP-62 NSCLC, in the assay on HT29 colon, with KM12 colon, in the assay on OVCAR-4 ovarian, with SF-295 CNS and with SN12C renal was above 25 µM in each case. The TGI with UACC-257 melanoma and with UACC-62 melanoma was above 25 µM in each case.

Turning to `CC[C@@H](C)/C=C(C)/C=C/C(=O)c1c(O)c(-c2ccc(O)cc2)cn(OC2CC(=O)CCC(C)OC(=O)CC2O)c1=O` (stereo partly specified), the GI50 with HOP-62 NSCLC is 0.356 µM; with HT29 colon, 3.47 µM; in the assay on KM12 colon it was 1.56 µM; in the assay with OVCAR-4 ovarian, 0.233 µM; with SF-295 CNS, 0.331 µM; in the assay with SN12C renal, 0.445 µM. In addition, the GI50 in the assay on UACC-257 melanoma was 0.368 µM; in the assay with UACC-62 melanoma it was 0.279 µM. Besides, the TGI with HOP-62 NSCLC came out at 12.9 µM; in the assay on HT29 colon, 14.1 µM; in the assay on KM12 colon, 14.7 µM; with OVCAR-4 ovarian, 26 µM; with SF-295 CNS, 4.89 µM; with SN12C renal, 13.8 µM. For the same molecule, the values for the TGI in the assay on UACC-257 melanoma and with UACC-62 melanoma were 8.87 µM and 1.15 µM, respectively.

On to `Cc1c(Cl)c(C)c(Cl)c(O)c1Cl`, for which the TGI with HOP-62 NSCLC, with HT29 colon, with KM12 colon, in the assay with OVCAR-4 ovarian, in the assay with SF-295 CNS and in the assay with SN12C renal was above 100 µM in each case. Further, the TGI in the assay with UACC-257 melanoma is 87 µM; in the assay with UACC-62 melanoma it was 37.4 µM.

Regarding `Cc1cc(C)c2c(c1)N(C)c1ncnc(-n3cnc4cc(C)ccc43)c1CC2C` (stereo unspecified), the GI50 in the assay with HOP-62 NSCLC is 4.71 µM; with HT29 colon, 3.13 µM; in the assay on KM12 colon, 3.67 µM; with OVCAR-4 ovarian, 4.18 µM; in the assay on SF-295 CNS, 2.89 µM; with SN12C renal, 4.37 µM. In addition, the GI50 was 11.5 µM in the assay on UACC-257 melanoma and 3.13 µM in the assay with UACC-62 melanoma. The TGI came out at 30 µM with HOP-62 NSCLC; 10.5 µM in the assay with HT29 colon; 26 µM with KM12 colon; 47.4 µM with OVCAR-4 ovarian; 12 µM with SF-295 CNS; 19.7 µM with SN12C renal. For the same molecule, the TGI is 38.5 µM in the assay with UACC-257 melanoma and 18.4 µM with UACC-62 melanoma.

Take `CC(=O)N[C@@H](Cc1ccc(OP(=O)(O)O)cc1)C(=O)N[C@H]1CCC(=O)N2CCC[C@@H](C(=O)NC3CCc4ccccc43)N2C1=O` (stereo partly specified): the GI50 in the assay with HOP-62 NSCLC, with HT29 colon, in the assay on KM12 colon, in the assay with OVCAR-4 ovarian, in the assay with SF-295 CNS and in the assay with SN12C renal was above 25 µM each time. Also, the GI50 with UACC-257 melanoma and with UACC-62 melanoma was above 25 µM in each case. Also, the TGI in the assay on HOP-62 NSCLC, in the assay with HT29 colon, in the assay on KM12 colon, in the assay with OVCAR-4 ovarian, in the assay with SF-295 CNS and with SN12C renal was above 25 µM in each case. Also, the TGI in the assay with UACC-257 melanoma and in the assay with UACC-62 melanoma was above 25 µM each time.

Turning to `CCC(C)C1NC(=O)C(NC(=O)C(CC(C)C)N(C)C(=O)[C@@H]2CC(O)CN2C(=O)[C@H](C)O)C(C)OC(=O)[C@H](Cc2ccc(OC)cc2)N(C)C(=O)[C@@H]2CCCN2C(=O)[C@H](CC(C)C)NC(=O)C(C)C(=O)[C@H](C(C)C)OC(=O)CC1O` (stereo partly specified), the GI50 in the assay with HOP-62 NSCLC was 0.028 µM; in the assay with HT29 colon it was 0.0169 µM; in the assay on KM12 colon it was below 0.01 µM; in the assay on OVCAR-4 ovarian it was 0.0246 µM; in the assay on SF-295 CNS it was 0.0268 µM; with SN12C renal it was 0.0572 µM. Further, the GI50 with UACC-257 melanoma is 0.0768 µM; in the assay with UACC-62 melanoma, below 0.01 µM. Further, the TGI in the assay with HOP-62 NSCLC is 1.4 µM and 0.394 µM; in the assay with HT29 colon it was 2.23 µM and 1.09 µM; with KM12 colon it was 0.735 µM and 0.173 µM; with OVCAR-4 ovarian, 1.14 µM and 1.17 µM; in the assay with SF-295 CNS, 2.05 µM and 0.388 µM; with SN12C renal, 0.806 µM and 3.2 µM. In addition, the TGI in the assay with UACC-257 melanoma was 1.94 µM and 1.85 µM; in the assay on UACC-62 melanoma, 0.361 µM and 0.0495 µM.
